{"source": "ChEMBL document CHEMBL2086262", "about": "“Ligand-based designing, in silico screening, and biological evaluation of new potent fructose-1,6-bisphosphatase (FBPase) inhibitors” (Eur J Med Chem, 2012)"}
{"assay": "Inhibition of human recombinant FBPase using fructose-1,6-biphosphate as substrate incubated for 3 mins prior to substrate addition by spectrophotometric analysis", "units": {"IC50": "nM"}}
{"smiles": "O=C(CCc1c(C(=O)O)[nH]c2cc(Cl)cc(Cl)c12)NO", "IC50": 1500}
{"smiles": "CCOc1cc2nc(CC(=O)O)nc(Nc3cccc(-c4csc(C)n4)c3)c2cc1OCC", "IC50": 960}
{"smiles": "CCOc1cc2ncnc(Nc3cc(-c4csc(C)n4)cc(C(F)(F)F)c3)c2cc1OCC", "IC50": "> 10000"}
{"smiles": "CCOc1cc2nc(CS(C)(=O)=O)nc(Nc3cccc(-c4csc(C)n4)c3)c2cc1OCC", "IC50": 2100}
{"smiles": "CCC(C)Oc1cc2ncnc(Nc3cccc(-c4csc(C)n4)c3)c2cc1OC", "note": "(configuration not stated)", "IC50": "> 10000"}
{"smiles": "CCOc1cc2ncnc(Nc3ccc(Cl)c(C)c3)c2cc1OCC", "IC50": "> 10000"}
{"smiles": "O=C(O)c1ccc2c(Nc3cccc(Br)c3)ncnc2c1", "IC50": "> 10000"}
{"smiles": "CCOC(=O)c1[nH]c2cc(Cl)cc(Cl)c2c1CCC(=O)O", "IC50": "> 10000"}
{"smiles": "CCOc1cc2ncnc(Nc3cccc(I)c3)c2cc1OCC", "IC50": 2100}
{"smiles": "CCOc1cc2ncnc(Nc3cccc(-c4cccnc4)c3)c2cc1OCC", "IC50": 1400}
{"smiles": "COCCOc1cc2c(Nc3cccc(-c4csc(C)n4)c3)ncnc2cc1OC", "IC50": "> 10000"}
{"smiles": "CCOc1cc2nc(CC)nc(Nc3cccc(-c4csc(C)n4)c3)c2cc1OCC", "IC50": 1500}
{"smiles": "CCOc1cc2nc(CN(CC)CC)nc(Nc3cccc(Br)c3)c2cc1OCC", "IC50": "> 10000"}
{"smiles": "CCOc1cc2ncnc(Nc3cccc(-c4csc(C)n4)c3)c2cc1OC", "IC50": 3400}
{"smiles": "CCOc1cc2ncnc(Nc3cccc(-c4csc(C(=O)O)n4)c3)c2cc1OCC", "IC50": "> 10000"}
{"smiles": "CCOc1cc2ncnc(Nc3cc(-c4csc(C)n4)ccc3OC)c2cc1OCC", "IC50": 990}
{"smiles": "CCOc1cc2ncnc(Nc3cccc(-c4csc(NC)n4)c3)c2cc1OCC", "IC50": 800}
{"smiles": "CCOc1cc2nc(CN3CCOCC3)nc(Nc3cccc(Br)c3)c2cc1OCC", "IC50": "> 10000"}
{"smiles": "COc1cc2c(Nc3cccc(-c4csc(C)n4)c3)ncnc2cc1OC1CCCC1", "IC50": "> 10000"}
{"smiles": "CCNCc1nc(Nc2cccc(-c3csc(C)n3)c2)c2cc(OCC)c(OCC)cc2n1", "IC50": 6000}
{"smiles": "CCOc1cc2ncnc(Nc3cccc(-c4csc(NN)n4)c3)c2cc1OCC", "IC50": 4500}
{"smiles": "C#Cc1cccc(Nc2ncnc3cc(OC)c(OC)cc23)c1", "IC50": 900}
{"smiles": "CCOc1cc2nc(CCl)nc(Nc3cccc(Br)c3)c2cc1OCC", "IC50": "> 10000"}
{"smiles": "CCOc1cc2ncnc(Nc3cc(-c4csc(C)n4)ccc3F)c2cc1OCC", "IC50": 480}
{"smiles": "CCOc1cc2ncnc(Nc3cc(-c4csc(C)n4)ccc3Cl)c2cc1OCC", "IC50": 1700}
{"smiles": "CCOc1cc2nc(CCl)nc(Nc3cccc(-c4csc(C)n4)c3)c2cc1OCC", "IC50": 870}
{"smiles": "CCOc1cc2ncnc(Nc3cccc(-c4nc[nH]n4)c3)c2cc1OCC", "IC50": 640}
{"smiles": "COCCOc1cc2c(Nc3cccc(Br)c3)ncnc2cc1OC", "IC50": 5500}
{"smiles": "CCOc1cc2ncnc(Nc3cccc(-c4ccc(C)cc4)c3)c2cc1OCC", "IC50": "> 10000"}
{"smiles": "COc1cc(-c2ccc(OC)nc2)c2oc(NS(=O)(=O)c3cc(Cl)ccc3Cl)nc2c1", "IC50": 3500}
{"smiles": "CCOc1cc2ncnc(Nc3cccc(-c4ccccc4C)c3)c2cc1OCC", "IC50": "> 10000"}
{"smiles": "CCOc1cc2ncnc(Nc3cccc(-c4cocn4)c3)c2cc1OCC", "IC50": 3600}
{"smiles": "O=C(O)CCc1c(CO)[nH]c2cc(Cl)cc(Cl)c12", "IC50": "> 10000"}
{"smiles": "O=C(O)CCc1c(C(=O)NO)[nH]c2cc(Cl)cc(Cl)c12", "IC50": "> 10000"}
{"smiles": "CCCOc1cc2ncnc(Nc3cccc(-c4csc(C)n4)c3)c2cc1OCC", "IC50": 1000}
{"smiles": "COc1cc(-c2cccc(N)c2)c2oc(NS(=O)(=O)c3cc(Cl)ccc3Cl)nc2c1", "IC50": 570}
{"smiles": "COc1cc2c(Nc3cccc(-c4csc(C)n4)c3)ncnc2cc1OC(C)(C)C", "IC50": 1300}
{"smiles": "CCCCOc1ccc2ncnc(Nc3cccc(Br)c3)c2c1", "IC50": "> 10000"}
{"smiles": "CCOc1cc2ncnc(Nc3cccc(-c4csc(COC)n4)c3)c2cc1OCC", "IC50": 7300}
{"smiles": "CCOc1cc2ncnc(Nc3cc(-c4csc(C)n4)ccc3Br)c2cc1OCC", "IC50": "> 10000"}
{"smiles": "Nc1cc2c(Nc3cccc(Br)c3)ncnc2cc1Cl", "IC50": "> 10000"}
{"smiles": "O=C(O)c1[nH]c2cc(Cl)cc(Cl)c2c1CCCO", "IC50": 2700}
{"smiles": "CCOc1cc2ncnc(Nc3ccc(F)c(Cl)c3)c2cc1OCC", "IC50": 530}
{"smiles": "O=C(O)CCCc1c(C(=O)O)[nH]c2cc(Cl)cc(Cl)c12", "IC50": 1000}
{"smiles": "CCOc1cc2ncnc(Nc3cccc(-c4csc(N(C)C)n4)c3)c2cc1OCC", "IC50": 8000}
{"smiles": "CCOc1cc2nc(C(F)(F)F)nc(Nc3cccc(-c4csc(C)n4)c3)c2cc1OCC", "IC50": "> 10000"}
{"smiles": "COC(=O)CCc1c(C(=O)O)[nH]c2cc(Cl)cc(Cl)c12", "IC50": 7000}
{"smiles": "CCOc1cc2ncnc(Nc3cccc(-c4csc(C(N)=O)n4)c3)c2cc1OCC", "IC50": 930}
{"smiles": "NC(=O)CCc1c(C(=O)O)[nH]c2cc(Cl)cc(Cl)c12", "IC50": 2200}
{"smiles": "Cc1nc(-c2cccc(Nc3ncnc4cc5c(cc34)OCCO5)c2)cs1", "IC50": "> 10000"}
{"smiles": "CCOc1cc2nc(Cl)nc(Nc3cccc(-c4csc(C)n4)c3)c2cc1OCC", "IC50": 2600}
{"smiles": "Cc1nc(-c2cccc(Nc3ncnc4ccccc34)c2)cs1", "IC50": "> 10000"}
{"smiles": "CCOc1cc2ncnc(Nc3cccc(C(C)=O)c3)c2cc1OCC", "IC50": "> 10000"}
{"smiles": "CCOc1cc2nc(CN)nc(Nc3cccc(-c4csc(C)n4)c3)c2cc1OCC", "IC50": 1500}
{"smiles": "CCOc1cc2ncnc(Nc3cccc(-c4coc(C)n4)c3)c2cc1OCC", "IC50": 500}
{"smiles": "CCOc1cc2c(Nc3cccc(-c4csc(C)n4)c3)ncnc2cc1OC(C)C", "IC50": 420}
{"smiles": "CCOc1cc2nc(CC(C)C)nc(Nc3cccc(Br)c3)c2cc1OCC", "IC50": "> 10000"}
{"smiles": "CCOc1cc2ncnc(Nc3cccc(-c4nc(C)cs4)c3)c2cc1OCC", "IC50": 650}
{"smiles": "CCOc1cc2nc(CCCl)nc(Nc3cccc(-c4csc(C)n4)c3)c2cc1OCC", "IC50": 1000}
{"smiles": "CCOc1cc2ncnc(Nc3cc(-c4csc(C)n4)c(F)cc3F)c2cc1OCC", "IC50": "> 10000"}
{"smiles": "CCCc1nc(-c2cccc(Nc3ncnc4cc(OCC)c(OCC)cc34)c2)cs1", "IC50": "> 10000"}
{"smiles": "CCOc1cc2ncnc(Nc3cccc(-c4cncs4)c3)c2cc1OCC", "IC50": 980}
{"smiles": "CCN(CC)c1nc(Nc2cccc(Br)c2)c2cc(OC)c(OC)cc2n1", "IC50": "> 10000"}
{"smiles": "CCOc1cc2nc(CCCCl)nc(Nc3cccc(-c4csc(C)n4)c3)c2cc1OCC", "IC50": 4100}
{"smiles": "CN(C)C(=O)CCc1c(C(=O)O)[nH]c2cc(Cl)cc(Cl)c12", "IC50": 1700}
{"smiles": "CCOc1cc2ncnc(Nc3cccc(Br)c3)c2cc1OCC", "IC50": 1700}
{"smiles": "COCCOc1ccc2ncnc(Nc3cccc(Br)c3)c2c1", "IC50": 2900}
{"smiles": "COCCOc1cc2ncnc(Nc3cccc(-c4csc(C)n4)c3)c2cc1OC", "IC50": "> 10000"}
{"smiles": "CCOc1cc2nc(C)nc(Nc3cccc(-c4csc(C)n4)c3)c2cc1OCC", "IC50": 1000}
{"smiles": "CCOc1cc2ncnc(Nc3cccc(-c4ccccc4)c3)c2cc1OCC", "IC50": "> 10000"}
{"smiles": "COc1cc2c(Nc3cccc(-c4csc(C)n4)c3)ncnc2cc1OC(C)C", "IC50": 2300}
{"smiles": "CCOc1nc(-c2cccc(Nc3ncnc4cc(OCC)c(OCC)cc34)c2)cs1", "IC50": 6100}
{"smiles": "COCCOc1cc2ncnc(Nc3cccc(Br)c3)c2cc1OCCOC", "IC50": "> 10000"}
{"smiles": "CCCOc1cc2ncnc(Nc3cccc(-c4csc(C)n4)c3)c2cc1OC", "IC50": "≥ 5600"}
{"smiles": "CCOc1cc2ncnc(Nc3cccc(-c4cnc(C)o4)c3)c2cc1OCC", "IC50": 4000}
{"smiles": "CCOc1cc2nc(CN(C)C)nc(Nc3cccc(-c4csc(C)n4)c3)c2cc1OCC", "IC50": 2000}
{"smiles": "C#Cc1cccc(Nc2ncnc3cc(OCC)c(OCC)cc23)c1", "IC50": 2400}
{"smiles": "COc1cc2ncnc(Nc3cccc(Br)c3)c2cc1[N+](=O)[O-]", "IC50": "> 10000"}
{"smiles": "CCOc1cc2ncnc(Nc3ccc(Cl)c(-c4csc(C)n4)c3)c2cc1OCC", "IC50": 5300}
{"smiles": "CCOc1cc2nc(-n3ccnc3)nc(Nc3cccc(-c4csc(C)n4)c3)c2cc1OCC", "IC50": 770}
{"smiles": "CCOc1cc2ncnc(Nc3cccc(C(=O)CBr)c3)c2cc1OCC", "IC50": "> 10000"}
{"smiles": "CCOc1cc2ncnc(Nc3cccc(-c4csc(N)n4)c3)c2cc1OCC", "IC50": 3500}
{"smiles": "CCOc1cc2nc(C(C)C)nc(Nc3cccc(-c4csc(C)n4)c3)c2cc1OCC", "IC50": 5000}
{"smiles": "CCOc1ccc(-c2csc(C)n2)cc1Nc1ncnc2cc(OCC)c(OCC)cc12", "IC50": 1800}
{"smiles": "CCOc1cc2ncnc(Nc3cccc(-c4csc(C5CC5)n4)c3)c2cc1OCC", "IC50": 830}
{"smiles": "CCOc1cc2c(Nc3cccc(-c4csc(C)n4)c3)ncnc2cc1OC", "IC50": 1200}
{"smiles": "CCOc1cc2ncnc(Nc3cccc(-c4csc(-c5ccccc5)n4)c3)c2cc1OCC", "IC50": "> 10000"}
{"smiles": "O=C(O)CCc1c(C(=O)O)[nH]c2cc(Cl)cc(Cl)c12", "IC50": "≥ 2500"}
{"smiles": "CCOc1cc2nc(CN3CCCC3)nc(Nc3cccc(-c4csc(C)n4)c3)c2cc1OCC", "IC50": 6100}
{"smiles": "O=C(O)Cc1c(C(=O)O)[nH]c2cc(Cl)cc(Cl)c12", "IC50": "> 10000"}
{"smiles": "CCOc1cc2nc(CC(C)C)nc(Nc3cccc(-c4csc(C)n4)c3)c2cc1OCC", "IC50": 1700}
{"smiles": "CCOc1cc2ncnc(Nc3cccc(-c4csc(Cc5ccccc5)n4)c3)c2cc1OCC", "IC50": "> 10000"}
{"smiles": "CCOc1cc2nc(Cc3ccccc3)nc(Nc3cccc(-c4csc(C)n4)c3)c2cc1OCC", "IC50": "> 10000"}
{"smiles": "CCOc1cc2ncnc(Nc3ccc(F)c(-c4csc(C)n4)c3)c2cc1OCC", "IC50": 610}
{"smiles": "CCOc1cc2ncnc(Nc3ccc(F)c(-c4csc(C)n4)c3F)c2cc1OCC", "IC50": "> 10000"}
{"smiles": "CCOc1cc2ncnc(Nc3cccc(-c4cscn4)c3)c2cc1OCC", "IC50": 390}
{"smiles": "CCOc1cc2nc(CS(C)(=O)=O)nc(Nc3cccc(Br)c3)c2cc1OCC", "IC50": "> 10000"}
{"smiles": "O=[N+]([O-])c1cc2c(Nc3cccc(Br)c3)ncnc2cc1Cl", "IC50": "> 10000"}
{"smiles": "CCOc1cc2nc(-c3ccccc3)nc(Nc3cccc(Br)c3)c2cc1OCC", "IC50": "> 10000"}
{"smiles": "CCOc1cc2nc(COC)nc(Nc3cccc(-c4csc(C)n4)c3)c2cc1OCC", "IC50": 1400}
{"smiles": "COc1cc2ncnc(Nc3cccc(-c4csc(C)n4)c3)c2cc1OC", "IC50": 4400}
{"smiles": "CCOc1cc2ncnc(Nc3cccc(-c4ccccn4)c3)c2cc1OCC", "IC50": 390}
{"smiles": "CCOc1cc2ncnc(Nc3cccc(-c4cccc(C)c4)c3)c2cc1OCC", "IC50": "> 10000"}
{"smiles": "CN(C)C(=O)c1[nH]c2cc(Cl)cc(Cl)c2c1CCC(=O)O", "IC50": "> 10000"}
{"smiles": "COc1cc2ncnc(Nc3cccc(Cl)c3)c2cc1OC", "note": "[TYRPHOSTIN AG-1478]", "IC50": 1300}
{"smiles": "COc1cc2ncnc(Nc3cccc(-c4csc(C)n4)c3)c2cc1OC(C)C", "IC50": "> 10000"}
{"smiles": "CCOc1cc2ncnc(Nc3cccc(C#N)c3)c2cc1OCC", "IC50": "> 10000"}
{"smiles": "O=C(O)CCCCc1c(C(=O)O)[nH]c2cc(Cl)cc(Cl)c12", "IC50": 1200}
{"smiles": "CCOc1cc2ncnc(Nc3cccc(-c4nccs4)c3)c2cc1OCC", "IC50": 380}
{"smiles": "CCOc1cc2ncnc(Nc3cccc(Cl)c3)c2cc1OCC", "IC50": 1600}
{"smiles": "CC(C)Oc1ccc2ncnc(Nc3cccc(Br)c3)c2c1", "IC50": "> 10000"}
{"smiles": "CCCc1nc(Nc2cccc(-c3csc(C)n3)c2)c2cc(OCC)c(OCC)cc2n1", "IC50": 1400}
